Test results taken from US9527857B2, “HSPC-sparing treatments for RB-positive abnormal cellular proliferation” (G1 Therapeutics, Inc., priority 2013, dated 2016).
“Also recorded” adds a separate entry of the source.

Experiments:
[1] = system: WM2664 cells (CDK4/6-dependent, Rb-positive); assay: Cell cycle arrest (propidium iodide flow cytometry), WM2664; type: cell-based; conditions: 300 nM, 24 hours
From the text: To test the ability of CDK4/6 inhibitors to induce a clean G1-arrest, a cell based screening method was used consisting of two CDK4/6-dependent cell lines (tHS68 and WM2664; Rb-positive) and one CDK4/6-independent (A2058; Rb-negative) cell line. […] At the conclusion of the experiment, cells were harvested, fixed, and stained with propidium iodide (a DNA intercalator), which fluoresces strongly red (emission maximum 637 nm) when excited by 488 nm light. Samples were run on Dako Cyan flow cytometer and >10,000 events were collected for each sample. Data were analyzed using FlowJo 2.2 software developed by TreeStar, Inc.

[2] = system: MMTV-c-neu (Rb-positive) tumors; assay: MMTV-c-neu HER2-driven (Rb-positive) luminal breast cancer mouse model; type: in vivo, mice
From the text: A HER2-driven model (Rb-positive) of breast cancer (Muller W J, Sinn E, Pattengale P K, Wallace R, Leder P. Single-step induction of mammary adenocarcinoma in transgenic mice bearing the activated c-neu oncogene. Cell 1988; 54: 105-15), that expresses c-neu (the mouse ortholog of human HER2) driven by the MMTV promoter was used in the following example. This model was chosen because previous studies in murine (Yu Q, Geng Y, Sicinski P. Specific protection against breast cancers by cyclin D1 ablation. Nature 2001; 411: 1017-21; Landis M W, Pawlyk B S, Li T, Sicinski P, Hinds P W. Cyclin D1-dependent kinase activity in murine development and mammary tumorigenesis. Cancer Cell 2006; 9: 13-22; Reddy H K, Mettus R V, Rane S G, Grana X, Litvin J, Reddy E P. Cyclin-dependent kinase 4 expression is essential for neu-induced breast tumorigenesis. Cancer Res 2005; 65: 10174-8; Yu Q, Sicinska E, Geng Y, Ahnstrom M, Zagozdzon A, Kong Y, et al. Requirement for CDK4 kinase function in breast cancer. Cancer Cell 2006; 9: 23-32.) and human HER2-positive breast cancer (An H X, Beckmann M W, Reifenberger G, Bender H G, Niederacher D. Gene amplification and overexpression of CDK4 in sporadic breast carcinomas is associated with high tumor cell proliferation. Am J Pathol 1999; 154: 113-8; Samady L, Dennis J, Budhram-Mahadeo V, Latchman DS. Activation of CDK4 gene expression in human breast cancer cells by the Brn-3b POU family transcription factor. Cancer Biol Ther 2004; 3: 317-23; Takano Y, Takenaka H, Kato Y, Masuda M, Mikami T, Saegusa M, et al. Cyclin D1 overexpression in invasive breast cancers: correlation with cyclin-dependent kinase 4 and oestrogen receptor overexpression, and lack of correlation with mitotic activity.
MMTV-neu mice were generated and observed post-lactation, with tumors observed with a median latency of approximately 25 weeks. Mice were enrolled in therapy studies when tumors reached a standard size (50-60 mm3) that permitted easy serial assessment. […] Tumor volumes were calculated by the formula, Volume=[(width)^2×length]/2. Tumor-bearing mice were euthanized at the indicated times due to predefined morbidity, tumor ulceration, or a tumor size of more than 1.5 cm in diameter.
Tumors were serially assessed weekly using caliper measurements. Therapeutic intervention began once tumors reached 40-64 mm^3. Tumor volume was calculated using the formula […]. All three compounds were administered orally via medicated diets (100 mg/kg/d). Medicated diets were administered for 28 consecutive days and then stopped. RECIST criteria were used to assess objective response rates.

[3] = system: Rb phosphorylation at Ser780 and Ser807/811 in tHS68 and WM2664; assay: Rb phosphorylation western blot, CDK4/6-dependent cell lines; type: cell-based; conditions: 300 nM; 4, 8, 16, 24 hours
Procedure: (§1) MAPK levels are shown as a control for protein levels. Following treatment, cells were harvested and analyzed for Rb-phosphorylation by western blot analysis.
(§2) The CDK4/6-cyclin D complex is essential for progression from G1 to the S-phase of the DNA cell cycle. This complex phosphorylates the retinoblastoma tumor suppressor protein (Rb). […] Samples were lysed and protein was assayed by western blot analysis. Rb phosphorylation was measured at two sites targeted by the CDK4/6-cyclin D complex, Ser780 and Ser807/811 using species specific antibodies.

[4] = Metabolic stability in liver microsomes; type: in vitro ADME, human, dog, rat, monkey, and mouse; conditions: each of the species tested
Procedure: Human, mouse, and dog liver microsomes were purchased from Xenotech, and Sprague-Dawley rat liver microsomes were prepared by Absorption Systems. The reaction mixture comprising 0.5 mg/mL of liver microsomes, 100 mM of potassium phosphate, pH 7.4, 5 mM of magnesium chloride, and 1 uM of test compound was prepared. The test compound was added into the reaction mixture at a final concentration of 1 uM. An aliquot of the reaction mixture (without cofactor) was incubated in shaking water bath at 37 deg. C. for 3 minutes. The control compound, testosterone, was run simultaneously with the test compound in a separate reaction. The reaction was initiated by the addition of cofactor (NADPH), and the mixture was then incubated in a shaking water bath at 37 deg. C. Aliquots (100 μL) were withdrawn at 0, 10, 20, 30, and 60 minutes for the test compound and 0, 10, 30, and 60 minutes for testosterone. […] Test compound samples were analyzed using the Orbitrap high resolution mass spectrometer to quantify the disappearance of parent test compound and detect the appearance of metabolites. […] Half-lives were calculated using GraphPad software, fitting to a single-phase exponential decay equation.
When calculated half-life was longer than the duration of the experiment, the half-life was expressed as >the longest incubation time. The calculated half-life is also listed in parentheses. […]

[5] = system: Rb phosphorylation at Ser780 and Ser807/811 in A2058; assay: Rb phosphorylation western blot, CDK4/6-independent cell line; type: cell-based; conditions: 300 nM; 4, 8, 16, 24 hours
Procedure: as §1, §2

[6] = Mouse pharmacokinetics (oral gavage / intravenous); type: in vivo, mice; conditions: plasma, 30 mg/kg, read-out: F (oral bioavailability)
Procedure: Blood samples were taken at 0, 0.25, 0.5, 1.0, 2.0, 4.0, and 8.0 hours post dosing and the plasma concentrations were determined by HPLC.

With `CN1CCN(c2ccc(Nc3ncc4cc5n(c4n3)C3(CCCCC3)CNC5=O)nc2)CC1` [T] the “cell cycle distribution after treatment” value [1] was “causes a loss of the S-phase peak”, the “tumor volume during a 28 day course of therapy” value ([2]; 100 mg/kg/d in chow, listed as Compound T) was “marked reduction in tumor volume” and the “tumor volume during a 28 day course of therapy” value ([2]; 100 mg/kg/d in chow, listed as compound T) was “marked decrease in tumor volume”. For the same compound, the objective response rate ([2]; 100 mg/kg/day medicated diet, 28 days, RECIST criteria) was 100%, the “tumor volume during a 28 day course of therapy” value ([2]; 150 mg/kg/d in chow) was “marked reduction in tumor volume” and the “Rb phosphorylation in CDK4/6-dependent cell lines (tHS68, WM2664)” value [3] was “blocks Rb phosphorylation in Rb-dependent cell lines by 16 hours post exposure; also recorded: reduced Rb-phosphorylation starting 16 hours after treatment”. For the same compound, the “half-life in liver microsomes compared with PD0332991” value [4] was “shorter in each species”, the “Rb phosphorylation in CDK4/6-independent cells (A2058)” value [5] was “no effect” and the bioavailability [6] was 80%.
